Experiment [1] addresses T1, Tyrosyl-DNA phosphodiesterase 2 (Homo sapiens, UniProt O95551).
T1 sequence (O95551 whole entry): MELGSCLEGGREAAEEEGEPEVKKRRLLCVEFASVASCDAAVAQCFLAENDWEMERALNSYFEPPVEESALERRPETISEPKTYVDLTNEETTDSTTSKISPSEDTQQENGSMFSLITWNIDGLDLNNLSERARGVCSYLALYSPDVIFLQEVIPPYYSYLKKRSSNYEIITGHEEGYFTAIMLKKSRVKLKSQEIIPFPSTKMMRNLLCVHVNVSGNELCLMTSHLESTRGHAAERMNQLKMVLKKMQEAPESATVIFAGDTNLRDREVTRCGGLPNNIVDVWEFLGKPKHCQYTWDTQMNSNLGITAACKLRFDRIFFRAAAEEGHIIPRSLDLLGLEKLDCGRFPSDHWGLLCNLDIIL
Description: Inhibition of N-terminal His-tagged human TDP2 expressed in Escherichia coli BL21 using 4-nitrophenyl phenylphosphonate as substrate incubated for 60 mins by EDTA based chromogenic assay.

The next experiment concerns DU-145. Description: Cytotoxicity against human DU-145 cells assessed as cell growth inhibition for 72 hrs by MTT assay. In kind it is functional. (Formazan colour is commonly taken as a measure of viable cells.)
The subject of another experiment is A549. In words: Cytotoxicity against human A549 cells assessed as cell growth inhibition for 72 hrs by MTT assay. Type of experiment: functional.

Turning to `Cc1ccc(COc2cc3c(c4c2[C@H](C(C)C)C2=C(O4)C(C)(C)C(=O)C(C)(C)C2=O)[C@@H](C(C)C)C2=C(O3)C(C)(C)C(=O)C(C)(C)C2=O)cc1`, in experiment [1], the IC50 – broadly, the concentration that gives 50% inhibition – came out at 31 µM. The GI50 (commonly the concentration that inhibits growth by half) with DU-145 (Homo sapiens, DU-145, 72 h) was found to be 15 µM; in the experiment on A549 (Homo sapiens, A549, 72 h) it was 29 µM.
For `CC(C)Oc1cc2c(c3c1[C@H](C(C)C)C1=C(O3)C(C)(C)C(=O)C(C)(C)C1=O)[C@@H](C(C)C)C1=C(O2)C(C)(C)C(=O)C(C)(C)C1=O`, half-maximal inhibition in experiment [1] (IC50) required 28 µM. The GI50 with DU-145 (Homo sapiens, DU-145, 72 h) worked out at 20 µM; in the experiment with A549 (Homo sapiens, A549, 72 h) it was 33 µM.
For `COc1c(C(=O)C(C)C)c2c(c3c1[C@@H](C(C)C)C1=C(O3)C(C)(C)C(=O)C(C)(C)C1=O)[C@@H](C(C)C)C1=C(O2)C(C)(C)C(=O)C(C)(C)C1=O` (racemic) the same measures were 57 µM, 20 µM and 32 µM.
For `CC(C)C(=O)c1c(O)c2c(c3c1OC1=C(C(=O)C(C)(C)C(=O)C1(C)C)[C@@H]3C(C)C)OC1=C(C(=O)C(C)(C)C(=O)C1(C)C)[C@@H]2C(C)C` (racemic) the same measures were 33 µM, 26 µM and 37 µM.
In turn, `CC(C)C(=O)c1c(O)c2c(c3c1OC1=C(C(=O)C(C)(C)C(=O)C1(C)C)[C@H]3C(C)C)OC1=C(C(=O)C(C)(C)C(=O)C1(C)C)[C@H]2C(C)C` displayed an IC50 in experiment [1] of 32 µM. Besides, the GI50 with DU-145 (Homo sapiens, DU-145, 72 h) stood at 38 µM; in the experiment with A549 (Homo sapiens, A549, 72 h) it was 65 µM.
For `CC(C)C(=O)c1c(O)c2c(c3c1OC1=C(C(=O)C(C)(C)C(=O)C1(C)C)[C@@H]3C(C)C)OC1=C(C(=O)C(C)(C)C(=O)C1(C)C)[C@@H]2C(C)C`, half-maximal inhibition in experiment [1] (IC50) required 48 µM. Further, the GI50 came out at 15 µM with DU-145 (72 h) and 28 µM in the experiment on A549 (72 h).
`CC(C)[C@@H]1C2=C(Oc3c1c(O)cc1c3[C@H](C(C)C)C3=C(O1)C(C)(C)C(=O)C(C)(C)C3=O)C(C)(C)C(=O)C(C)(C)C2=O` registered an IC50 in experiment [1] of 36 µM. In addition, the GI50 was found to be 26 µM in the experiment with DU-145 (Homo sapiens, DU-145, 72 h) and 56 µM in the experiment with A549 (Homo sapiens, A549, 72 h).
Compound `CC(C)[C@@H]1C2=C(Oc3c1c(O)cc1c3[C@@H](C(C)C)C3=C(O1)C(C)(C)C(=O)C(C)(C)C3=O)C(C)(C)C(=O)C(C)(C)C2=O` showed an IC50 in experiment [1] of 25 µM. The GI50 in the experiment on DU-145 (Homo sapiens, DU-145, 72 h) stood at 23 µM; in the experiment with A549 (Homo sapiens, A549, 72 h), 27 µM.
For `CC(C)[C@@H]1C2=C(Oc3c1c(OCCCN1CCN(C)CC1)cc1c3[C@@H](C(C)C)C3=C(O1)C(C)(C)C(=O)C(C)(C)C3=O)C(C)(C)C(=O)C(C)(C)C2=O` the same measures were 20 µM, 51 µM and 63 µM.
With `CC(C)[C@@H]1C2=C(Oc3c1c(OCCCN1CCCC1)cc1c3[C@@H](C(C)C)C3=C(O1)C(C)(C)C(=O)C(C)(C)C3=O)C(C)(C)C(=O)C(C)(C)C2=O`, 19 µM corresponded to half-maximal inhibition in experiment [1] (IC50). The GI50 amounted to 38 µM in the experiment with DU-145 (Homo sapiens, DU-145, 72 h) and 50 µM with A549 (Homo sapiens, A549, 72 h).
For `CC(C)[C@@H]1C2=C(Oc3c1c(OCCN1CCCC1)cc1c3[C@@H](C(C)C)C3=C(O1)C(C)(C)C(=O)C(C)(C)C3=O)C(C)(C)C(=O)C(C)(C)C2=O` the same measures were 22 µM, 22 µM and 46 µM.
The matching figures for `CC(C)C1C2=C(Oc3c1c(O)cc1c3C(C(C)C)C3=C(O1)C(C)(C)C(=O)C(C)(C)C3=O)C(C)(C)C(=O)C(C)(C)C2=O` (racemic; form 1): 29 µM, 13 µM and 26 µM.
For the compound `CC(C)C(=O)c1c(O)c2c(c3c1OC1=C(C(=O)C(C)(C)C(=O)C1(C)C)[C@H]3C(C)C)OC1=C(C(=O)C(C)(C)C(=O)C1(C)C)[C@@H]2C(C)C`, it took 50 µM to reach half-maximal inhibition in experiment [1] (IC50). Moreover, the GI50 turned out to be 41 µM with DU-145 (72 h) and 60 µM in the experiment with A549 (72 h).
The matching figures for `CC(C)C(=O)c1c(O)c2c(c3c1OC1=C(C(=O)C(C)(C)C(=O)C1(C)C)[C@H]3C(C)C)OC1=C(C(=O)C(C)(C)C(=O)C1(C)C)[C@@H]2C(C)C` (racemic): 41 µM, 17 µM and 26 µM.
Take `COc1cc(O)c2c(c1C(=O)C(C)C)OC1=C(C(=O)C(C)(C)C(=O)C1(C)C)[C@H]2C(C)C`: the IC50 in experiment [1] was more than 100 µM. Besides, the GI50 came out at 16 µM with DU-145 (Homo sapiens, DU-145, 72 h) and 30 µM with A549 (Homo sapiens, A549, 72 h).
For `CC(C)[C@@H]1C2=C(Oc3c1c(OCCCN1CCOCC1)cc1c3[C@@H](C(C)C)C3=C(O1)C(C)(C)C(=O)C(C)(C)C3=O)C(C)(C)C(=O)C(C)(C)C2=O` the same measures were 20 µM, 26 µM and 65.7 µM.
In turn, `CC(C)C1C2=C(Oc3c1c(O)cc1c3C(C(C)C)C3=C(O1)C(C)(C)C(=O)C(C)(C)C3=O)C(C)(C)C(=O)C(C)(C)C2=O` (racemic; form 2) displayed an IC50 in experiment [1] of 32 µM. For the same compound, the figures for the GI50 in the experiment with DU-145 (72 h) and in the experiment on A549 (72 h) were 15 µM and 44 µM, respectively.
For `COc1cc(O)c2c(c1C(=O)C(C)C)OC1=C(C(=O)C(C)(C)C(=O)C1(C)C)[C@@H]2C(C)C`, the concentration for half-maximal inhibition (IC50) in experiment [1] is more than 100 µM. Besides, the GI50 is 28 µM in the experiment with DU-145 (Homo sapiens, DU-145, 72 h) and 50 µM in the experiment on A549 (Homo sapiens, A549, 72 h).
For `CC(C)[C@H]1C2=C(Oc3c1c(O)cc1c3[C@@H](C(C)C)C3=C(O1)C(C)(C)C(=O)C(C)(C)C3=O)C(C)(C)C(=O)C(C)(C)C2=O` the same measures were 32 µM, 16 µM and 38 µM.
The matching figures for `CC(C)C(=O)c1c(O)c2c(c3c1OC1=C(C(=O)C(C)(C)C(=O)C1(C)C)[C@@H]3C(C)C)OC1=C(C(=O)C(C)(C)C(=O)C1(C)C)[C@H]2C(C)C`: 39 µM, 31 µM and 62 µM.
In experiment [1], `CCN(CC)CCCOc1cc2c(c3c1[C@H](C(C)C)C1=C(O3)C(C)(C)C(=O)C(C)(C)C1=O)[C@@H](C(C)C)C1=C(O2)C(C)(C)C(=O)C(C)(C)C1=O` registered an IC50 of 20 µM. Further, the 50% growth inhibitory concentration (GI50) in the experiment on DU-145 (Homo sapiens, DU-145, 72 h) stood at 25 µM; in the experiment with A549 (Homo sapiens, A549, 72 h), 85 µM.
As for `COc1c(C(=O)C(C)C)c2c(c3c1[C@@H](C(C)C)C1=C(O3)C(C)(C)C(=O)C(C)(C)C1=O)[C@H](C(C)C)C1=C(O2)C(C)(C)C(=O)C(C)(C)C1=O` (racemic), in experiment [1], the IC50 was found to be 55 µM. Further, the GI50 with DU-145 (Homo sapiens, DU-145, 72 h) is 13 µM; with A549 (Homo sapiens, A549, 72 h) it was 31 µM.
In experiment [1], `CC(COc1cc2c(c3c1[C@H](C(C)C)C1=C(O3)C(C)(C)C(=O)C(C)(C)C1=O)[C@@H](C(C)C)C1=C(O2)C(C)(C)C(=O)C(C)(C)C1=O)CN(C)C` (some centres not stated) registered an IC50 of 12 µM. The GI50 with DU-145 (Homo sapiens, DU-145, 72 h) was 28 µM; in the experiment with A549 (Homo sapiens, A549, 72 h) it was 46 µM.
For `CC(C)[C@@H]1C2=C(Oc3c1c(OCCCN(C)C)cc1c3[C@@H](C(C)C)C3=C(O1)C(C)(C)C(=O)C(C)(C)C3=O)C(C)(C)C(=O)C(C)(C)C2=O` the same measures were 10 µM, 23 µM and 46 µM.
`CC(C)[C@@H]1C2=C(Oc3cc(O)c4c(c31)OC1=C(C(=O)C(C)(C)C(=O)C1(C)C)[C@@H]4C(C)C)C(C)(C)C(=O)C(C)(C)C2=O` returned a half-inhibitory concentration (IC50) in experiment [1] of 34 µM. The concentration for 50% growth inhibition (GI50) amounted to 28 µM in the experiment with DU-145 (Homo sapiens, DU-145, 72 h) and 32 µM in the experiment on A549 (Homo sapiens, A549, 72 h).
As for `CC(C)[C@@H]1C2=C(Oc3c1c(OCc1ccccc1)cc1c3[C@@H](C(C)C)C3=C(O1)C(C)(C)C(=O)C(C)(C)C3=O)C(C)(C)C(=O)C(C)(C)C2=O`, it took 54 µM to reach half-maximal inhibition in experiment [1] (IC50). In addition, the GI50 in the experiment with DU-145 (Homo sapiens, DU-145, 72 h) worked out at 19 µM; in the experiment on A549 (Homo sapiens, A549, 72 h) it was 36 µM.
The matching figures for `CCN(CC)CCOc1cc2c(c3c1[C@H](C(C)C)C1=C(O3)C(C)(C)C(=O)C(C)(C)C1=O)[C@@H](C(C)C)C1=C(O2)C(C)(C)C(=O)C(C)(C)C1=O`: 53 µM, 23 µM and 46 µM.
For `CC(C)[C@@H]1C2=C(Oc3c1c(OCCC1OCCO1)cc1c3[C@@H](C(C)C)C3=C(O1)C(C)(C)C(=O)C(C)(C)C3=O)C(C)(C)C(=O)C(C)(C)C2=O` the same measures were 17 µM, 12 µM and 21 µM.
For `CC(C)[C@@H]1C2=C(Oc3c1c(OCCN(C)C)cc1c3[C@@H](C(C)C)C3=C(O1)C(C)(C)C(=O)C(C)(C)C3=O)C(C)(C)C(=O)C(C)(C)C2=O` the same measures were 11 µM, 22 µM and 54 µM.
On to `CC(C)[C@@H]1C2=C(Oc3c1c(OCCN1CCOCC1)cc1c3[C@@H](C(C)C)C3=C(O1)C(C)(C)C(=O)C(C)(C)C3=O)C(C)(C)C(=O)C(C)(C)C2=O`, for which half-maximal inhibition in experiment [1] (IC50) was put at 25 µM. For the same compound, the concentration for 50% growth inhibition (GI50) in the experiment on DU-145 (Homo sapiens, DU-145, 72 h) turned out to be 27 µM; in the experiment with A549 (Homo sapiens, A549, 72 h) it was 39.6 µM.
The matching figures for `CC(C)[C@@H]1C2=C(Oc3c1c(OCC1CC1)cc1c3[C@@H](C(C)C)C3=C(O1)C(C)(C)C(=O)C(C)(C)C3=O)C(C)(C)C(=O)C(C)(C)C2=O`: 42 µM, 13 µM and 24 µM.
The compound `CC(C)CCOc1cc2c(c3c1[C@H](C(C)C)C1=C(O3)C(C)(C)C(=O)C(C)(C)C1=O)[C@@H](C(C)C)C1=C(O2)C(C)(C)C(=O)C(C)(C)C1=O` came in with a half-inhibitory concentration (IC50) in experiment [1] of 26 µM. Besides, the GI50 in the experiment with DU-145 (Homo sapiens, DU-145, 72 h) worked out at 19 µM; in the experiment on A549 (Homo sapiens, A549, 72 h) it was 37 µM.
The matching figures for `CCOC(CCCOc1cc2c(c3c1[C@H](C(C)C)C1=C(O3)C(C)(C)C(=O)C(C)(C)C1=O)[C@@H](C(C)C)C1=C(O2)C(C)(C)C(=O)C(C)(C)C1=O)OCC`: 41 µM, 27 µM and 62 µM.
For `CCOc1cc2c(c3c1[C@H](C(C)C)C1=C(O3)C(C)(C)C(=O)C(C)(C)C1=O)[C@@H](C(C)C)C1=C(O2)C(C)(C)C(=O)C(C)(C)C1=O` the same measures were 21 µM, 12 µM and 24 µM.

These data come from ChEMBL document CHEMBL5113405, “Discovery, enantioselective synthesis of myrtucommulone E analogues as tyrosyl-DNA phosphodiesterase 2 inhibitors and their biological activities” (Eur J Med Chem, 2022).
